pIC50: −log10 of the molar value.
Legend:
hROMK (hKir1.1) = hROMK (hKir1.1) (Homo sapiens (Human), UniProt P48048); assay: Thallium Flux Assay (ROMK channel functional thallium flux, FLIPR-Tetra); format: cell-based; conditions: HEK293 cells stably expressing hROMK (hKir1.1); read-out: Thallium Flux IC50
Experimental: HEK293 cells stably expressing hROMK (hKir1.1) were grown at 37° C. in a 10% CO2 humidified incubator in complete growth media: Dulbecco's Modified Eagle Medium supplemented with non-essential amino acids, Penicillin/Streptomycin/Glutamine, G418 and FBS. At >80% confluency, aspirate the media from the flask and rinse with 10 mL Calcium/Magnesium-free PBS. […] To dislodge the cell, gently bang the side of the flask with your hand. Triturate the cells completely and then transfer the cells to 25 mL complete media. Centrifuge at 1,500 rpm for 6 min followed by resuspension in complete growth media and determine cell concentration.
Compound Buffer (per microplate): 20 mL Probenecid/Assay Buffer; 0.3 mM ouabain (10 mM ouabain in water can be stored in amber bottle/aluminum foil at room temperature); Test compound
Stimulant Buffer (prepared at 5× final concentration in 1× FluxOR™ Chloride-Free Buffer): 7.5 mM Thallium sulfate and […] (to give a final assay concentration of 3 mM Thallium/0.3 mM Potassium). Store at 4° C. when not in use. If kept sterile, this solution is good for months.
The ROMK channel functional thallium flux assay is performed in 384 wells, using the FLIPR-Tetra instrument. HEK-hKir1.1 cells are seeded in Poly-D-Lysine microplates and kept in a 37° C.-10% CO2 incubator overnight. On the day of the experiment, the growth media is replaced with the FluxOR™ reagent loading buffer and incubated, protected from light, at ambient temperature (23-25° C.) for 90 min. The loading buffer is replaced with assay buffer±test compound followed by 30 min incubation at ambient temperature, where the Thallium/Potassium stimulant is added to the microplate.
1. Seed HEK-hKir1.1 cells (50 μl at 20,000 cells/well) in 384-well PDL coated Microplates
2. Allow cells to adhere overnight in humidified 37° C./10% CO2 incubator
3. Completely remove cell growth media from microplate and replace with 25 μl loading buffer
4. Incubate Microplate at room temperature, protected form light, for 90 min
5. Remove loading buffer and replace with 25 μl 1× Assay Buffer±test compound.
6. Incubate microplate at room temperature, protected from light, for 30 min
7. […] Excitation=400 nm, Emission=460 & 580 nm. Collect data for ˜10 min.
The fluorescence intensity of wells containing 3 μM of a standard control ROMK inhibitor of the present invention is used to define the ROMK-sensitive component of thallium flux. Fluorescence in the presence of test compounds is normalized to control values to provide % fluorescence change.

Kir1.1 (ROMK1) = Kir1.1 (ROMK1) (Homo sapiens (Human), UniProt P48048); assay: Electrophysiology Assay (whole cell voltage clamp, IonWorks Quattro); format: cell-based; conditions: Chinese hamster ovary cells stably expressing Kir1.1; block during voltage step to 0 mV; read-out: Electrophysiology IC50
Experimental: Chinese hamster ovary cells stably expressing Kir1.1 channels were maintained in T-75 flasks in cell culture media in a humidified 10% CO2 incubator at 37° C. Prior to an experiment, Kir1.1 expression was induced by overnight incubation with 1 mM sodium butyrate. […] After centrifugation, the cell pellet was resuspended in approximately 4.0 mL of bath solution and placed in the IonWorks instrument. The intracellular solution consisted of (in mM): 80 K gluconate, 40 KCl, 20 KF, 3.2 MgCl2, 3 EGTA, 5 Hepes, pH 7.4. Electrical access to the cytoplasm was achieved by perforation in 0.13 mg/mL amphotericin B for 4 min. […] Voltage protocols and current recordings were performed using the IonWorks HT software/hardware system. Currents were sampled at 1 kHz. No correction for liquid junction potentials was used. The test pulse, consisting of a 100 ms step to 0 mV from a holding potential of −70 mV, followed by a 100 ms voltage ramp from −70 mV to +70 mV, was applied before and after a 6 min compound incubation period. Test compounds were prepared by diluting DMSO stock solutions into the bath solution at 3× the final concentration and placed in the instrument in 96-well polypropylene plates. Current amplitudes were measured using the IonWorks software.

Sequence of Kir1.1 (ROMK1) (P48048 whole entry, species assumed): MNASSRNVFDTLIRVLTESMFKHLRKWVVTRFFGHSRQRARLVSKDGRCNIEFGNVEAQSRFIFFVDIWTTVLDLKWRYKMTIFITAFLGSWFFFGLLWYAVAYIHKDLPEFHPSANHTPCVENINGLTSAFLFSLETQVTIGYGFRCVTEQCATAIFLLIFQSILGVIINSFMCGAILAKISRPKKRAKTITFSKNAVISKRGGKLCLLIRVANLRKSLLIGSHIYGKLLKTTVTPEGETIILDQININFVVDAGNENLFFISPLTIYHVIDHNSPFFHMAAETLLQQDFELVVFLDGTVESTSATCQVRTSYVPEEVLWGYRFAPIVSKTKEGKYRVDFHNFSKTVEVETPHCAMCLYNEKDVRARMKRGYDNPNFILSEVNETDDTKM
Sequence of hROMK (hKir1.1) (P48048 whole entry): as the sequence (P48048 whole entry, species assumed) above

| Compound | pIC50 (hROMK (hKir1.1)) | pIC50 (Kir1.1 (ROMK1)) |
| --- | --- | --- |
| Cc1cc2c(cc1C(O)CN1CCN3C[C@@H](c4ccc5c(c4C)COC5=O)OC[C@@H]3C1)COC2=O (single isomer, unassigned) [Example 43] | 6.68 | 6.89 |
| Cc1c([C@@H](O)CN2CCN3C[C@@H](c4ccc(C#N)c(F)c4)OC[C@H]3C2)ccc2c1COC2=O [Example 29, (3R,9aR)-3-(4-cyano-3-fluorophenyl)-8-[(2R)-2-hydroxy-2-(4-methyl-1-oxo-1,3-dihydro-2-benzofuran-5-yl)ethyl]octahydropyrazino[2,1-c][1,4]oxazin-8-ium chloride] | 6.31 | 7.10 |
| O=C1OCc2cc(CCN3CCN4C[C@H](c5ccc6c(c5)COC6=O)OC[C@@H]4C3)ccc21 [Example 63] | 6.64 | 7.40 |
| Cc1c([C@@H]2CN3CCN(CCc4cc(F)c(C#N)c(F)c4)C[C@H]3CO2)ccc2c1COC2=O [Example 98] | 6.77 | 7.05 |
| Cc1c([C@H]2CN3CCN(CCc4ccc5c(c4)COC5=O)C[C@H]3CO2)ccc2c1COC2=O [Example 65] | 6.77 | 6.96 |
| Cc1c([C@@H]2CN3CCN(CC(O)c4cc(F)c(C#N)c(F)c4)C[C@H]3CO2)ccc2c1COC2=O (stereo partly drawn) [Example 38, (3R,9aS)-8-[2-(4-cyano-3,5-difluorophenyl)-2-hydroxyethyl]-3-(4-methyl-1-oxo-1,3-dihydro-2-benzofuran-5-yl)octahydropyrazino[2,1-c][1,4]oxazin-5-ium chloride] | 6.36 | 6.92 |
| Cc1c([C@@H]2CN3CCN(CC(O)c4ccc(-n5cnnn5)nc4)C[C@H]3CO2)ccc(F)c1C#N (single isomer, unassigned) [Example 16] | 6.25 | 7.10 |
| Cc1c([C@@H]2CN3CCN(CC(O)c4ccc5c(c4)C[C@H](C)OC5=O)C[C@H]3CO2)ccc2c1COC2=O (single isomer, unassigned) [Example 44] | 6.57 | 6.89 |
| Cc1c([C@@H]2CN3CCN(CC(O)c4cccc(-n5cnnn5)c4)C[C@@H]3CO2)ccc(F)c1C#N (single isomer, unassigned) [Example 22] | 6.51 | 6.36 |
| Cc1c(CCN2CCN3C[C@@H](c4ccc5c(c4)CCOC5=O)OC[C@@H]3C2)ccc2c1COC2=O [Example 73] | 6.24 | 6.52 |
| CCOc1cc(CCN2CCN3C[C@@H](c4ccc5c(c4C)COC5=O)OC[C@@H]3C2)ccc1C#N [Example 83] | 6.92 | 7.05 |
| COc1cc(C(O)CN2CCN3C[C@@H](c4ccc5c(c4C)COC5=O)OC[C@@H]3C2)cc(F)c1C#N (stereo partly drawn) [Example 48, (3R,9aS)-8-[2-(4-cyano-3-fluoro-5-methoxyphenyl)-2-hydroxyethyl]-3-(4-methyl-1-oxo-1,3-dihydro-2-benzofuran-5-yl)octahydropyrazino[2,1-c][1,4]oxazin-5-ium chloride] | 6.66 | 6.68 |
| Cc1c([C@@H]2CN3CCN(C[C@H](O)c4ccc5c(c4)COC5=O)C[C@@H]3CN2)ccc(F)c1C#N [Example 107] | 6.80 | 6.70 |
| Cc1c(C(C)CN2CCN3C[C@@H](c4ccc5c(c4C)COC5=O)OC[C@@H]3C2)ccc2c1COC2=O (some centres unmarked) [Example 90] | 6.96 | 6.64 |
| Cc1c([C@H]2CN3CCN(CC(O)c4ccc(-n5cnnn5)nc4)C[C@H]3CO2)ccc(F)c1C#N (single isomer, unassigned) [Example 17] | 6.07 | 6.82 |
| Cc1c([C@H]2CN3CCN(CCc4ccc5c(c4C)COC5=O)C[C@H]3CO2)ccc(F)c1C#N [Example 79] | 6.57 | 7.15 |
| Cc1c([C@@H](O)CN2CCN3C[C@@H](c4ccc5c(c4)COC5=O)OC[C@@H]3C2)ccc2c1COC2=O [Example 11, (3R,9aS)-8-[(2R)-2-hydroxy-2-(4-methyl-1-oxo-1,3-dihydro-2-benzofuran-5-yl)ethyl]-3-(1-oxo-1,3-dihydro-2-benzofuran-5-yl)octahydropyrazino[2,1-c][1,4]oxazin-5-ium trifluoroacetatep] | 6.44 | 7.22 |
| COc1c(CCN2CCN3C[C@H](c4ccc5c(c4C)COC5=O)OC[C@H]3C2)ccc(C#N)c1F [Example 94] | 6.62 | 6.85 |
| COc1cc(C(O)CN2CCN3C[C@@H](c4ccc5c(c4C)COC5=O)OC[C@@H]3C2)ccc1C#N (single isomer, unassigned) [Example 47] | 6.60 | 6.72 |
| COc1cc(CCN2CCN3C[C@H](c4ccc5c(c4C)COC5=O)OC[C@H]3C2)c(F)cc1C#N [Example 97] | 6.46 | 6.55 |
| COc1cc(CCN2CCN3C[C@@H](c4ccc5c(c4C)COC5=O)OC[C@@H]3C2)cc(F)c1C#N [Example 99] | 6.59 | 6.68 |
| COc1cc(C(O)CN2CCN3C[C@@H](c4ccc5c(c4C)COC5=O)OC[C@@H]3C2)c(F)cc1C#N (stereo partly drawn) [Example 15, (3R,9aS)-8-[2-(4-cyano-2-fluoro-5-methoxyphenyl)-2-hydroxyethyl]-3-(4-methyl-1-oxo-1,3-dihydro-2-benzofuran-5-yl)octahydropyrazino[2,1-c][1,4]oxazin-5-ium chloride] | 6.17 | 6.54 |
| Cc1c([C@H]2CN3CCN(CCc4ccc(-n5cnnn5)nc4)C[C@H]3CO2)ccc(F)c1C#N [Example 93] | 7.10 | 7.10 |
| COc1cc(C(O)CN2CCN3C[C@H](c4ccc5c(c4C)COC5=O)OC[C@H]3C2)c(F)cc1C#N (stereo partly drawn) [Example 36, (3S,9aR)-8-[2-(4-cyano-2-fluoro-5-methoxyphenyl)-2-hydroxyethyl]-3-(4-methyl-1-oxo-1,3-dihydro-2-benzofuran-5-yl)octahydropyrazino[2,1-c][1,4]oxazin-5-ium chloride] | 6.41 | 6.92 |
| Cc1c([C@@H]2CN3CCN(CCc4ccc5c(c4)C[C@H](C)OC5=O)C[C@H]3CO2)ccc(F)c1C#N [Example 88] | 6.72 | 7.30 |
| Cc1c([C@H](O)CN2CCN3C[C@@H](c4ccc5c(c4C)COC5=O)OC[C@@H]3C2)ccc2c1COC2=O [Example 2, 5-((S)-1-hydroxy-2-((3R,9aS)-3-(4-methyl-1-oxo-1,3-dihydroisobenzofuran-5-yl)hexahydropyrazino[2,1-c][1,4]oxazin-8(1H)-yl)ethyl)-4-methylisobenzofuran-1(3H)-one] | 6.64 | 7.10 |
| COc1cc(CCN2CCN3C[C@@H](c4ccc5c(c4C)COC5=O)OC[C@@H]3C2)ccc1C#N [Example 56, 2-methoxy-4-(2-((3R,9aS)-3-(4-methyl-1-oxo-1,3-dihydroisobenzofuran-5-yl)hexahydropyrazino[2,1-c][1,4]oxazin-8(1H)-yl)ethyl)benzonitrile] | 7.40 | 7.15 |
| Cc1c([C@@H]2CN3CCN(CCc4ccc5c(c4)C[C@@H](C)OC5=O)C[C@H]3CO2)ccc2c1COC2=O [Example 87] | 6.96 | 7.30 |

Source: patent publication US9604998B2, “Inhibitors of the renal outer medullary potassium channel” (MERCK SHARP & DOHME CORP., priority 2013, dated 2017)
